Usually MIC stands for the smallest concentration in the dilution series that meets the test's criterion for growth inhibition. A higher MIC goes with a need for much substance.

The results in this text go back to US10532984B2, “Pyridonecarboxylic acid derivative or salt thereof” (priority 2016, dated 2020).

Assay [1] concerns P. aeruginosa 08-05. Put plainly: Combined antibacterial effect with drug efflux pump inhibitor PAβN, broth microdilution MIC. It counts as cell-based. The following applies: for P. aeruginosa 08-05 MIC ratio: P. aeruginosa 08-05, PAβN(−) MIC/PAβN(+) MIC; for MIC value P. aeruginosa 08-05 PAβN +: P. aeruginosa 08-05, with PAβN 50 μg/mL; for MIC value P. aeruginosa 08-05 PAβN −: P. aeruginosa 08-05, without PAβN. The method, then: (§1) The method used was a broth microdilution method according to the standard method of the Japanese Society of Chemotherapy (Chemotherapy, 38 (1), 102, 1990). In the condition which added H-Phe-Arg-βNA, 2HCl (PAβN) (50 μg/mL) as drug efflux pump inhibitor, the minimum inhibitory concentrations (MIC: μg/mL) was measured. The minimum inhibitory concentrations (MIC: μg/mL) of the conventional antimicrobial agents levofloxacin and cefepime as a positive control compound and a negative control compound for the evaluation were also measured similarly. P. aeruginosa is a clinical isolate given by […] Medical Center.
A general note: Broth dilution looks for growth in wells or tubes with falling amounts of substance.

The subject of assay [2] is P. aeruginosa 2014-17. The description is as above. The format is cell-based. The following applies: for MIC value P. aeruginosa 2014-17 PAβN +: P. aeruginosa 2014-17, with PAβN 50 μg/mL; for MIC value P. aeruginosa 2014-17 PAβN −: P. aeruginosa 2014-17, without PAβN. The method, then:
as §1

Assay [3] relates to P. aeruginosa PA01. The description is as above. As to conditions: for MIC value P. aeruginosa PA01 PAβN +: P. aeruginosa PA01, with PAβN 50 μg/mL; for MIC value P. aeruginosa PA01 PAβN −: P. aeruginosa PA01, without PAβN. The format is cell-based. The method, then:
as §1

The subject of assay [4] is MRSA9522. Put plainly: Antibacterial effect, MIC by standard method of Japanese Society of Chemotherapy. The format is cell-based, methicillin-resistant Staphylococcus aureus. As to conditions: Staphylococcus aureus. The method, then:
(§2) The minimum inhibitory concentrations (MIC: μg/mL) of the compounds set forth in Table 1 were measured according to the standard method of Japanese Society of Chemotherapy (Japanese Journal of Chemotherapy, 56 (1), 49, 2008). […] P. aeruginosa is a clinical isolate given by Kameda Medical Center. C. difficile is a clinical isolate purchased from International Health Management Associates, Inc. (IHMA).

Assay [5] deals with MRSA9532. The assay is described as above. The format is cell-based, methicillin-resistant Staphylococcus aureus. The following applies: Staphylococcus aureus. The method, then:
as §2

Assay [6] deals with C. difficile 2015-12. The assay is described as above. It counts as cell-based. The following applies: Clostridioides difficile, 201512; C. difficile 2015-12, clinical isolate. The method, then:
as §2

Assay [7] relates to C. difficile 2015-13. The description is as above. It counts as cell-based. As to conditions: Clostridioides difficile, 201513; C. difficile 2015-13, clinical isolate. The method, then: as §2
The subject of assay [8] is P. aeruginosa 2014-16. Described as above. The format is cell-based. As to conditions: Pseudomonas aeruginosa, 201416; P. aeruginosa 2014-16, clinical isolate. The method, then: as §2

In brackets after ≈: the same amount, converted by molar mass. Some results are limits rather than exact numbers.

In the case of `CO/N=C(\C(=O)N[C@@H]1C(=O)N2C(C(=O)[O-])=C(C[N+]3(C)CCCC3)CS[C@H]12)c1csc(N)n1` [Cefepime, cefepime, reference compound], in assay [1], the “P. aeruginosa 08-05 MIC ratio” value turned out to be 4, the “MIC value P. aeruginosa 08-05 PAβN +” value came out at 2 µg/mL and the “MIC value P. aeruginosa 08-05 PAβN −” value amounted to 8 µg/mL. For the same compound, in assay [2], the “MIC value P. aeruginosa 2014-17 PAβN +” value was found to be 16 µg/mL and the “MIC value P. aeruginosa 2014-17 PAβN −” value is 64 µg/mL. In addition, in assay [3], the “MIC value P. aeruginosa PA01 PAβN +” value was 0.5 µg/mL and the “MIC value P. aeruginosa PA01 PAβN −” value was 1 µg/mL.
Regarding `O=C(O)c1cn(C2CC2)c2cc(N3CCNCC3)c(F)cc2c1=O` [Ciprofloxacin, ciprofloxacin], the MIC in assay [4] was 128 µg/mL (≈ 386 µM); in assay [5] it was over 128 µg/mL.
Regarding `Nc1cc(-n2cc(C(=O)O)c(=O)c3cc(F)c(N4CC(N)C4)c(Cl)c32)c(F)cc1F` [Comparative Compound 1, 7-(3-Aminoazetidin-1-yl)-1-(5-amino-2,4-difluorophenyl)-8-chloro-6-fluoro-4-oxo-1,4-dihydroquinoline-3-carboxylic acid], the MIC in assay [4] amounted to 4 µg/mL (≈ 9.12 µM); in assay [5], 4 µg/mL (≈ 9.12 µM); in assay [6] it was 16 µg/mL (≈ 36.5 µM); in assay [7] it was 8 µg/mL (≈ 18.2 µM); in assay [8] it was 8 µg/mL (≈ 18.2 µM).
As for `CNC1CN(c2c(F)cc3c(=O)c(C(=O)O)cn(-c4cc(N)c(F)cc4F)c3c2Cl)C1` [Comparative Compound 2, 1-(5-amino-2,4-difluorophenyl)-8-chloro-6-fluoro-7-(3-methylaminoazetidin-1-yl)-4-oxo-1,4-dihydroquinoline-3-carboxylic acid], the MIC was 1 µg/mL (≈ 2.21 µM) in assay [4]; 2 µg/mL (≈ 4.42 µM) in assay [5]; 8 µg/mL (≈ 17.7 µM) in assay [6]; 4 µg/mL (≈ 8.83 µM) in assay [7]; 16 µg/mL (≈ 35.3 µM) in assay [8].
Consider `CNC1CN(c2c(F)cc3c(=O)c(C(=O)O)cn(-c4cc(N)c(F)cc4CO)c3c2C)C1` [Example 70], for which, in assay [1], the “P. aeruginosa 08-05 MIC ratio” value worked out at 4, the “MIC value P. aeruginosa 08-05 PAβN +” value is 0.25 µg/mL and the “MIC value P. aeruginosa 08-05 PAβN −” value came out at 1 µg/mL. Further, in assay [2], the “MIC value P. aeruginosa 2014-17 PAβN +” value was determined as 4 µg/mL and the “MIC value P. aeruginosa 2014-17 PAβN −” value was 16 µg/mL. For the same compound, in assay [3], the “MIC value P. aeruginosa PA01 PAβN +” value is 0.25 µg/mL and the “MIC value P. aeruginosa PA01 PAβN −” value is 0.25 µg/mL.
For `Cc1c(F)c(N2CC(N)C2)c(C)c2c1c(=O)c(C(=O)O)cn2-c1cc(N)c(F)cc1CO` [Example 100, 7-(3-Aminoazetidin-1-yl)-1-[5-amino-4-fluoro-2-(hydroxymethyl)phenyl]-5,8-dimethyl-6-fluoro-4-oxo-1,4-dihydroquinoline-3-carboxylic acid], in assay [1], the “P. aeruginosa 08-05 MIC ratio” value came out at 8, the “MIC value P. aeruginosa 08-05 PAβN +” value worked out at 0.06 µg/mL and the “MIC value P. aeruginosa 08-05 PAβN −” value was determined as 0.5 µg/mL. In addition, in assay [2], the “MIC value P. aeruginosa 2014-17 PAβN +” value turned out to be 0.25 µg/mL and the “MIC value P. aeruginosa 2014-17 PAβN −” value was 2 µg/mL. In assay [3], the “MIC value P. aeruginosa PA01 PAβN +” value turned out to be 0.016 µg/mL and the “MIC value P. aeruginosa PA01 PAβN −” value amounted to 0.12 µg/mL.
`CNC1CN(c2c(F)c(C)c3c(=O)c(C(=O)O)cn(-c4cc(N)c(F)cc4CO)c3c2Cl)C1` [Example 104, 1-[5-Amino-4-fluoro-2-(hydroxymethyl)phenyl]-8-chloro-6-fluoro-5-methyl-7-(3-methylaminoazetidin-1-yl)-4-oxo-1,4-dihydroquinoline-3-carboxylic acid] registered an MIC in assay [4] of 1 µg/mL (≈ 2.09 µM). Further, it took 1 µg/mL (≈ 2.09 µM) to inhibit growth in assay [5] (MIC). 1 µg/mL (≈ 2.09 µM) was the least that counted as inhibitory in assay [6] (MIC). Further, the MIC in assay [7] is 0.5 µg/mL (≈ 1.04 µM). The MIC in assay [8] was found to be 2 µg/mL (≈ 4.18 µM). For the same compound, in assay [1], the “P. aeruginosa 08-05 MIC ratio” value was 8, the “MIC value P. aeruginosa 08-05 PAβN +” value is 0.06 µg/mL and the “MIC value P. aeruginosa 08-05 PAβN −” value was found to be 0.5 µg/mL. Also, in assay [2], the “MIC value P. aeruginosa 2014-17 PAβN +” value was found to be 0.25 µg/mL and the “MIC value P. aeruginosa 2014-17 PAβN −” value came to 4 µg/mL. In assay [3], the “MIC value P. aeruginosa PA01 PAβN +” value stood at 0.016 µg/mL and the “MIC value P. aeruginosa PA01 PAβN −” value stood at 0.12 µg/mL.
As for `Cc1c(F)c(N2CC(O)C2)c(Cl)c2c1c(=O)c(C(=O)O)cn2-c1cc(N)c(F)cc1CO` [Example 113, 1-[5-Amino-4-fluoro-2-(hydroxymethyl)phenyl]-8-chloro-6-fluoro-7-(3-hydroxyazetidin-1-yl)-5-methyl-4-oxo-1,4-dihydroquinoline-3-carboxylic acid], the MIC came to 1 µg/mL (≈ 2.15 µM) in assay [4]; 1 µg/mL (≈ 2.15 µM) in assay [5]; 0.12 µg/mL (≈ 0.258 µM) in assay [6]; 0.06 µg/mL (≈ 0.129 µM) in assay [7]; 4 µg/mL (≈ 8.59 µM) in assay [8].
For the compound `C[C@H]1COc2c(N3CCN(C)CC3)c(F)cc3c(=O)c(C(=O)O)cn1c23` [Levofloxacin, levofloxacin, reference compound], the minimal inhibitory concentration (MIC) in assay [4], in assay [5], in assay [6], in assay [7] and in assay [8] was over 128 µg/mL throughout. In addition, in assay [1], the “P. aeruginosa 08-05 MIC ratio” value worked out at 32. Further, the “MIC value P. aeruginosa 08-05 PAβN +” value in assay [1] was found to be 0.12 µg/mL. Moreover, in assay [1], the “MIC value P. aeruginosa 08-05 PAβN −” value was found to be 4 µg/mL. In assay [2], the “MIC value P. aeruginosa 2014-17 PAβN +” value was found to be 1 µg/mL. Besides, the “MIC value P. aeruginosa 2014-17 PAβN −” value in assay [2] amounted to 32 µg/mL. Besides, in assay [3], the “MIC value P. aeruginosa PA01 PAβN +” value is 0.06 µg/mL. For the same compound, in assay [3], the “MIC value P. aeruginosa PA01 PAβN −” value was 0.5 µg/mL.
